Columns and labels:
Assay type in all cases: cell-based
[1] = biological target: T1, Phospho-KIT (Tyr719) (Homo sapiens, UniProt P10721, DEL560-578); assay: GIST T1 KIT Western Blot; conditions: GIST T1 cells, 4 hours, serum-free medium; read-out: pKIT suppression by western blot analysi GIST T1
T1 construct: endogenous in cells; host or cells: GIST T1
Procedure: GIST48, GIST430, and GIST882 cells were obtained from J. Fletcher (Brigham and Women's Hospital, Boston, MA). GIST T1 cells were obtained from B. Rubin (Cleveland Clinic, Cleveland, OH) and Professor Takahiro Taguchi (Kochi Medical School, Nankoku, Kochi, Japan). […] GIST430 cells were grown in Ham's F10 medium supplemented with 15% characterized fetal bovine serum (Invitrogen, Carlsbad, CA), 30 mg/L bovine pituitary extract (BD Biosciences, San Jose, CA), 0.5% Mito+ serum extender (BD Biosciences, San Jose, CA), 1 unit/mL penicillin G, 1 µg/ml streptomycin, and 0.29 mg/mL L-glutamine at 37 °C, 5%CO2, 95% humidity. GIST T1 cells were grown in DMEM medium supplemented with 10% characterized fetal bovine serum (Invitrogen, Carlsbad, CA), 1 unit/mL penicillin G, 1 µg/ml streptomycin, and 0.29 mg/mL L-glutamine at 37 °C, 5% CO2, and 95% humidity. Cells were allowed to expand until reaching 70-95% confluence at which point they were subcultured or harvested for assay use.
One hundred twenty-five thousand cells were added per well in a 24-well tissue-culture treated plate. Cells were then incubated overnight at 37°C, 5% CO2, 95% humidity. Medium was aspirated, cells were washed with PBS, and serum-free DMEM medium was added. A serial dilution of test compound was added to plates containing cells and plates were incubated for 4 hours at 37°C, 5% CO2, 95% humidity. Cells were washed with PBS, then lysed. Cell lysates were separated by SDS-PAGE and transferred to PVDF. Phospho-KIT (Tyr719) was detected using an antibody from Cell Signaling Technology (Beverly, MA), ECL Plus detection reagent (GE Healthcare, Piscataway, NJ) and a Molecular Devices Storm 840 phosphorimager in fluorescence mode. Blots were stripped and probed for total KIT using an antibody from Santa Cruz Biotech (Santa Cruz, CA). IC50 values were calculated using Prism software (Graphpad, San Diego, CA).

[2] = system: GIST430 cells; assay: GIST 430 Cell Proliferation Assay; conditions: Homo sapiens, 120 h, 115 hours + 5 hours resazurin
Procedure: GIST48, GIST430, and GIST882 cells were obtained from J. Fletcher (Brigham and Women's Hospital, Boston, MA). GIST T1 cells were obtained from B. Rubin (Cleveland Clinic, Cleveland, OH) and Professor Takahiro Taguchi (Kochi Medical School, Nankoku, Kochi, Japan). Briefly, GIST48 and GIST 882 cells were grown in RPMI 1640 medium supplemented with 15% characterized fetal bovine serum (Invitrogen, Carlsbad, CA), 1 unit/mL penicillin G, 1 µg/ml streptomycin, and 0.29 mg/mL L-glutamine at 37 °C, 5% CO2, and 95% humidity. GIST430 cells were grown in Ham's F10 medium supplemented with 15% characterized fetal bovine serum (Invitrogen, Carlsbad, CA), 30 mg/L bovine pituitary extract (BD Biosciences, San Jose, CA), 0.5% Mito+ serum extender (BD Biosciences, San Jose, CA), 1 unit/mL penicillin G, 1 µg/ml streptomycin, and 0.29 mg/mL L-glutamine at 37 °C, 5%CO2, 95% humidity. GIST T1 cells were grown in DMEM medium supplemented with 10% characterized fetal bovine serum (Invitrogen, Carlsbad, CA), 1 unit/mL penicillin G, 1 µg/ml streptomycin, and 0.29 mg/mL L-glutamine at 37 °C, 5% CO2, and 95% humidity.
A serial dilution of test compound was dispensed into a 384-well black clear bottom plate (Corning, Corning, NY). Two thousand five-hundred cells were added per well in 50 µL complete growth medium. Plates were incubated for 115 hours at 37°C, 5% CO2, 95% humidity. At the end of the incubation period 10 µL of a 440 µM solution of resazurin (Sigma, St. Louis, MO) in PBS was added to each well and incubated for an additional 5 hours at 37°C, 5% CO2, 95% humidity. Plates were read on a Synergy2 reader (Biotek, Winooski, VT) using an excitation of 540 nm and an emission of 600 nm.

[3] = biological target: T2, D816V KIT (Homo sapiens, UniProt P10721, D816V); assay: CHO K1 phospho-KIT Western; conditions: transient transfected CHO K1 cells, phospho-KIT (Tyr719), read-out: KIT kinase domain mutations (primary/secondary): D816V
T2 construct: V5 (vector-encoded); expressed in transfected cells; host or cells: CHO K1
Procedure: (§1) Cells were washed with PBS, then lysed. Cell lysates were separated by SDS-PAGE and transferred to PVDF. Phospho-KIT (Tyr719) was detected using an antibody from Cell Signaling Technology (Beverly, MA), ECL Plus detection reagent (GE Healthcare, Piscataway, NJ) and a Molecular Devices Storm 840 phosphorimager in fluorescence mode. Blots were stripped and probed for total KIT using an antibody from Santa Cruz Biotech (Santa Cruz, CA). IC50 values were calculated using Prism software (Graphpad, San Diego, CA).

[4] = biological target: T3, D820A KIT (Homo sapiens, UniProt P10721, D820A); assay: CHO K1 phospho-KIT Western; conditions: transient transfected CHO K1 cells, phospho-KIT (Tyr719), read-out: KIT kinase domain mutations (primary/secondary): D820A
T3 construct: V5 (vector-encoded); expressed in transfected cells; host or cells: CHO K1
Procedure: as §1

[5] = biological target: T4, VV559-560 deletion/D816V KIT (Homo sapiens, UniProt P10721, D816V/DEL559-560); assay: CHO K1 phospho-KIT Western; conditions: transient transfected CHO K1 cells, phospho-KIT (Tyr719), read-out: KIT kinase domain mutations (primary/secondary): VV559-560 deletion / D816V
T4 construct: expressed in transfected cells; host or cells: CHO K1
Procedure: as §1

[6] = biological target: T5, V560D/N822K (Homo sapiens, UniProt P10721, N822K/V560D); assay: CHO K1 phospho-KIT ELISA; conditions: transient transfected CHO K1 cells, phospho-c-KIT (Tyr719), read-out: KIT kinase domain mutations (primary/secondary): V560D / N822K
T5 construct: V5 (vector-encoded); expressed in transfected cells; host or cells: CHO K1
Procedure: (§2) CHO K1 cells (catalog #CCL-61) were obtained from the American Type Culture Collection, Manassas, VA. […] Cells were allowed to expand until reaching 70-95% confluency at which point they were subcultured or harvested for assay use.
(§3) Cells were then incubated overnight at 37°C, 5% CO2, 95% RH. Transfection-grade pcDNA3.2 V5 DEST expression vector containing KIT variant, Lipofectamine LTX Reagent, and PLUS reagent (Invitrogen, Carlsbad, CA) were diluted into Opti-MEM® I medium (Invitrogen, Carlsbad, CA). The tube was incubated at room temperature to allow formation of DNA-Lipofectamine LTX complexes. The DNA-lipofectamine LTX complex mix was added directly to each well and mixed gently. Eighteen hours post-transfection, medium was replaced with serum-free RPMI medium. A serial dilution of test compound was added, and plates were incubated for 4 hours at 37°C, 5% CO2, 95% RH. Cell lysates were prepared, then phospho-c-KIT (Tyr719) was measured by using a Human phospho-c-KIT ELISA kit (Cell Signaling, Beverly, MA). Data was analyzed using Prism software (Graphpad, San Diego, CA) to calculate IC50 values.

[7] = biological target: T6, V560D/Y823D (Homo sapiens, UniProt P10721, V560D/Y823D); assay: CHO K1 phospho-KIT ELISA; conditions: transient transfected CHO K1 cells, phospho-c-KIT (Tyr719), read-out: KIT kinase domain mutations (primary/secondary): V560D / Y823D
T6 construct: V5 (vector-encoded); expressed in transfected cells; host or cells: CHO K1
Procedure: as §2, §3

[8] = biological target: T7, WKV557-559 deletion/C557insertion/D820A (Homo sapiens, UniProt P10721, D820A/DEL557-558/V559C); assay: CHO K1 phospho-KIT ELISA; conditions: transient transfected CHO K1 cells, phospho-c-KIT (Tyr719), read-out: KIT kinase domain mutations (primary/secondary): WKV557-559 deletion
T7 construct: V5 (vector-encoded); expressed in transfected cells; host or cells: CHO K1
T7 sequence (P10721 with tags, fused parts or gaps DEL557-558/V559C/D820A): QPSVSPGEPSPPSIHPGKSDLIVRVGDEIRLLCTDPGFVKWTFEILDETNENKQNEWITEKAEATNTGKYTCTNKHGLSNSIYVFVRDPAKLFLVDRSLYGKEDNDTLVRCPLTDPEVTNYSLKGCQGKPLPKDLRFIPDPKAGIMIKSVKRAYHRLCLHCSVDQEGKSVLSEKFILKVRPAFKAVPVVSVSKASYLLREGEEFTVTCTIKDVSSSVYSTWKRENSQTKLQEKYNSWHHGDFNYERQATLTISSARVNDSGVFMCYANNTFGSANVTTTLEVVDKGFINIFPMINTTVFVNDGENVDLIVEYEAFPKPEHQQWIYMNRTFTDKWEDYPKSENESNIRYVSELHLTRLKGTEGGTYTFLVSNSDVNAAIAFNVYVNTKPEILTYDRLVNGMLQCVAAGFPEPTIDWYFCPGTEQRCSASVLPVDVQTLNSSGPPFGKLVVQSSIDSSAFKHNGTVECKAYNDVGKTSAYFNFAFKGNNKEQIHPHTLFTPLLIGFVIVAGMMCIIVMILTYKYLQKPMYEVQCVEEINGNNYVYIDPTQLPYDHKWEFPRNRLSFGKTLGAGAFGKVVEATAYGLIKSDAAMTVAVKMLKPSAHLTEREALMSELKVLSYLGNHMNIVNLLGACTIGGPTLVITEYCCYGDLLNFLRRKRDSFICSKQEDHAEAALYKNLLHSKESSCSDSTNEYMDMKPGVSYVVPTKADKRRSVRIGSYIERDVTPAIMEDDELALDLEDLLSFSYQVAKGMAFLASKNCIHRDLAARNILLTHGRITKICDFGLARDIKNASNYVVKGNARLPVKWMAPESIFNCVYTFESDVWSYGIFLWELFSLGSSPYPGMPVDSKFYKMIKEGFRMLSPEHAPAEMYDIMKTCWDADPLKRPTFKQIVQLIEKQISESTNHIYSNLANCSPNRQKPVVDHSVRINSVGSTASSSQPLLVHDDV
Procedure: as §2, §3

T1 sequence (P10721 with tags, fused parts or gaps DEL560-578): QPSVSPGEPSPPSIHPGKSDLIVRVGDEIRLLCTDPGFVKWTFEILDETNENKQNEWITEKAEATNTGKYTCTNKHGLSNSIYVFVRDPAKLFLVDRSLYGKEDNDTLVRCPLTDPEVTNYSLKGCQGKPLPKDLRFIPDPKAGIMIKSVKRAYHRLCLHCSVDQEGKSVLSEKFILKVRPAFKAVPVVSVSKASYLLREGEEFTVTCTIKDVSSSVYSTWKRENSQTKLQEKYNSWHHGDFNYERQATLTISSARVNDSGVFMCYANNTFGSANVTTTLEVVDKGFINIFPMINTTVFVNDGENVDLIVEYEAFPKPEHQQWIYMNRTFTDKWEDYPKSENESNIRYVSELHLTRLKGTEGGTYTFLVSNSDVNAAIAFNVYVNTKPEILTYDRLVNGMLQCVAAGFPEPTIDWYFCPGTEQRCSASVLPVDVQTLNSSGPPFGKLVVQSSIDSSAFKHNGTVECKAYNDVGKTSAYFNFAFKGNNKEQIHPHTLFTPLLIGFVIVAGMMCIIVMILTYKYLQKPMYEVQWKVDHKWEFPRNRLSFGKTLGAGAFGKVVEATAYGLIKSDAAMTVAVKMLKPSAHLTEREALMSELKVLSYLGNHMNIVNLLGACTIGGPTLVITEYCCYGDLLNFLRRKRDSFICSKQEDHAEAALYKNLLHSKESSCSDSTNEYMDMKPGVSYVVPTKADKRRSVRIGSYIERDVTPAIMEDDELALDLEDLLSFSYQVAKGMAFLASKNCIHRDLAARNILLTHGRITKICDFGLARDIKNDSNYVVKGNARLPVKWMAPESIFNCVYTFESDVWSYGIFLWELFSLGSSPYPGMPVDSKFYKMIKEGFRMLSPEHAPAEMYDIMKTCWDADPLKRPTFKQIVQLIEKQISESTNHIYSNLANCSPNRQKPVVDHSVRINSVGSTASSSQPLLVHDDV
T6 sequence (P10721 26-976 V560D/Y823D): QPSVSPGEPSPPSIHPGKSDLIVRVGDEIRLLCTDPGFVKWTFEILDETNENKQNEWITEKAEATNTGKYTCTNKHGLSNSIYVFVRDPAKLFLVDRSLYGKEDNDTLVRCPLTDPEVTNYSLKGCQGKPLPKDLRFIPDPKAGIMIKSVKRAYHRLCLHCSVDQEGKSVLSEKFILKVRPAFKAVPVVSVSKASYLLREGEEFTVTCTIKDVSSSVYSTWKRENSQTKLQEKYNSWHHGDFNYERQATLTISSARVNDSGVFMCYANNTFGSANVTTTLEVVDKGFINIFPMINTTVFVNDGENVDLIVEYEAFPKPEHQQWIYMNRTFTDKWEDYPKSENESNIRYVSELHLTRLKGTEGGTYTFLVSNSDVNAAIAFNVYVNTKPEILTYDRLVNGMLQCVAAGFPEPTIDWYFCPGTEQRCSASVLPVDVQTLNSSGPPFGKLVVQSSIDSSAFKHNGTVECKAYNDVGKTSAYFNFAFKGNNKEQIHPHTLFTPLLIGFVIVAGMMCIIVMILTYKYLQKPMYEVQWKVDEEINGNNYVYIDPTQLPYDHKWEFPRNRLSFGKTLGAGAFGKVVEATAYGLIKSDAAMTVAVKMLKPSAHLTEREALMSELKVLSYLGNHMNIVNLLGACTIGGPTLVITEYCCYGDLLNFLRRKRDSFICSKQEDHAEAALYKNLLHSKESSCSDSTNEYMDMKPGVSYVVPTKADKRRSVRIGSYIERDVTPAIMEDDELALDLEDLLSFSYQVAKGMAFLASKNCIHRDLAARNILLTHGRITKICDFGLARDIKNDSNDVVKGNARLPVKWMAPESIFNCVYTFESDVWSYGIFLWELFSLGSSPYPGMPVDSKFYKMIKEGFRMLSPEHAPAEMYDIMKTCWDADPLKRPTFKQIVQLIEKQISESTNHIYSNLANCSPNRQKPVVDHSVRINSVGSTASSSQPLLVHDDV
T3 sequence (P10721 26-976 D820A): as the sequence (P10721 26-976 V560D/Y823D) above, with D535V, D795A, D798Y counted along it
T2 sequence (P10721 26-976 D816V): as the sequence (P10721 26-976 V560D/Y823D) above, with D535V, D791V, D798Y counted along it
T4 sequence (P10721 with tags, fused parts or gaps DEL559-560/D816V): as the sequence (P10721 with tags, fused parts or gaps DEL557-558/V559C/D820A) above, with C532W, V533K, D789V, A793D counted along it
T5 sequence (P10721 26-976 V560D/N822K): as the sequence (P10721 26-976 V560D/Y823D) above, with N797K, D798Y counted along it

Row | SMILES | IC50 [1] | IC50 [2] | further results
1 | CCn1c(=O)c(-c2cc(NC(=O)Nc3cccc(F)c3)c(F)cc2Cl)cc2cnc(NCCOC)cc21 [Example 28, 1-(4-chloro-5-(1-ethyl-7-(2-methoxyethylamino)-2-oxo-1,2-dihydro-1,6-naphthyridin-3-yl)-2-fluorophenyl)-3-(3-fluorophenyl)urea] | < 0.01 µM | – | –
2 | CCn1c(=O)c(-c2cc(NC(=O)Nc3ccccc3)c(F)cc2Br)cc2cnc(N)cc21 [Example 57, 1-(5-(7-amino-1-ethyl-2-oxo-1,2-dihydro-1,6-naphthyridin-3-yl)-4-bromo-2-fluorophenyl)-3-phenylurea] | < 0.01 µM | – | –
3 | CCn1c(=O)c(-c2cc(NC(=O)Nc3ccccc3)c(F)cc2Cl)cc2cnc(NC(=O)N(C)C)cc21 [Example 70, 3-(3-(2-chloro-4-fluoro-5-(3-phenylureido)phenyl)-1-ethyl-2-oxo-1,2-dihydro-1,6-naphthyridin-7-yl)-1,1-dimethylurea] | < 0.01 µM | – | –
4 | CCn1c(=O)c(-c2cc(NC(=O)Nc3cccc(F)c3)c(F)cc2C)cc2cnc(NC)cc21 [Example 44, 1-(5-(1-ethyl-7-(methylamino)-2-oxo-1,2-dihydro-1,6-naphthyridin-3-yl)-2-fluoro-4-methylphenyl)-3-(3-fluorophenyl)urea] | < 0.01 µM | 0.01 to 0.1 µM | –
5 | CCn1c(=O)c(-c2cc(NC(=O)Nc3cccc(F)c3)c(F)cc2Br)cc2cnc(NC)cc21 [Example 50, 1-(4-bromo-5-(1-ethyl-7-(methylamino)-2-oxo-1,2-dihydro-1,6-naphthyridin-3-yl)-2-fluorophenyl)-3-(3-fluorophenyl)urea] | < 0.01 µM | – | –
6 | CCn1c(=O)c(-c2cc(NC(=O)Nc3ccccc3)c(F)cc2C)cc2cnc(NC)cc21 [Example 23, 1-(5-(1-ethyl-7-(methylamino)-2-oxo-1,2-dihydro-1,6-naphthyridin-3-yl)-2-fluoro-4-methylphenyl)-3-phenylurea] | < 0.01 µM | 0.01 to 0.1 µM | IC50 [3]: > 1 µM; IC50 [4]: 0.01 to 0.1 µM; IC50 [5]: 0.1 to 1 µM; IC50 [6]: 0.01 to 0.1 µM; IC50 [7]: < 0.01 µM; IC50 [8]: 0.01 to 0.1 µM
7 | CCn1c(=O)c(-c2cc(NC(=O)Nc3ccccc3)c(F)cc2Cl)cc2cnc(NC(C)=O)cc21 [Example 54, 1-(5-(7-acetamido-1-ethyl-2-oxo-1,2-dihydro-1,6-naphthyridin-3-yl)-4-chloro-2-fluorophenyl)-3-phenylurea] | < 0.01 µM | – | –
8 | CNc1cc2c(cn1)cc(-c1cc(NC(=O)Nc3ccccc3)c(F)cc1Cl)c(=O)n2C(C)C [Example 22, 1-(4-chloro-2-fluoro-5-(1-isopropyl-7-(methylamino)-2-oxo-1,2-dihydro-1,6-naphthyridin-3-yl)phenyl)-3-phenylurea] | < 0.01 µM | – | –
9 | CCn1c(=O)c(-c2cc(NC(=O)Nc3cccc4ccccc34)c(F)cc2Cl)cc2cnc(NC)cc21 [Example 6, 1-(4-chloro-5-(1-ethyl-7-(methylamino)-2-oxo-1,2-dihydro-1,6-naphthyridin-3-yl)-2-fluorophenyl)-3-(naphthalen-1-yl)urea] | 0.01 to 0.1 µM | – | –
10 | CCn1c(=O)c(-c2cc(NC(=O)Nc3cccc(F)c3)c(F)cc2Cl)cc2cnc(N)cc21 [Example 20, 1-(5-(7-amino-1-ethyl-2-oxo-1,2-dihydro-1,6-naphthyridin-3-yl)-4-chloro-2-fluorophenyl)-3-(3-fluorophenyl)urea] | < 0.01 µM | – | –
11 | CCn1c(=O)c(-c2cc(NC(=O)Nc3ccccc3)c(F)cc2Cl)cc2cnc(NC)cc21 [Example 3, 1-(4-chloro-5-(1-ethyl-7-(methylamino)-2-oxo-1,2-dihydro-1,6-naphthyridin-3-yl)-2-fluorophenyl)-3-phenylurea] | < 0.01 µM | 0.01 to 0.1 µM | –
12 | CCn1c(=O)c(-c2cc(NC(=O)Nc3cccc(F)c3)c(F)cc2Cl)cc2cnc(NC)cc21 [Example 24, 1-[4-chloro-5-(1-ethyl-7-methylamino-2-oxo-1,2-dihydro-[1,6]naphthyridin-3-yl)-2-fluoro-phenyl]-3-(3-fluoro-phenyl)-urea] | < 0.01 µM | – | –
13 | CCn1c(=O)c(-c2cc(NC(=O)Nc3csc4ccccc34)c(F)cc2C)cc2cnc(NC)cc21 [Example 59, 1-(benzo[b]thiophen-3-yl)-3-(5-(1-ethyl-7-(methylamino)-2-oxo-1,2-dihydro-1,6-naphthyridin-3-yl)-2-fluoro-4-methylphenyl)urea] | < 0.01 µM | – | IC50 [3]: < 0.01 µM; IC50 [4]: 0.01 to 0.1 µM; IC50 [5]: 0.01 to 0.1 µM; IC50 [6]: < 0.01 µM; IC50 [7]: < 0.01 µM; IC50 [8]: < 0.01 µM
14 | CCn1c(=O)c(-c2cc(NC(=O)Nc3csc4ccccc34)c(F)cc2Cl)cc2cnc(NC)cc21 [Example 32, 1-(benzo[b]thiophen-3-yl)-3-(4-chloro-5-(1-ethyl-7-(methylamino)-2-oxo-1,2-dihydro-1,6-naphthyridin-3-yl)-2-fluorophenyl)urea] | < 0.01 µM | 0.01 to 0.1 µM | –
15 | CCn1c(=O)c(-c2cc(NC(=O)Nc3ccccc3)c(F)cc2Cl)cc2cnc(NCCOC)cc21 [Example 27, 1-(4-chloro-5-(1-ethyl-7-(2-methoxyethylamino)-2-oxo-1,2-dihydro-1,6-naphthyridin-3-yl)-2-fluorophenyl)-3-phenylurea] | – | 0.1 to 1 µM | –

Source: patent EP3722296B1, “DIHYDRONAPHTHYRIDINES AND RELATED COMPOUNDS USEFUL AS KINASE INHIBITORS FOR THE TREATMENT OF PROLIFERATIVE DISEASES” (Deciphera Pharmaceuticals, LLC, priority 2012, dated 2013)
